Data on 36 molecules can be found in ChEMBL document CHEMBL4483862, “Open-source discovery of chemical leads for next-generation chemoprotective antimalarials” (2018).

The experiment deals with Plasmodium berghei. Nature of the experiment: Luciferase/luciferin-expressing antifolate-resistant parasites were used to infect a culture of HepG2 cells that were pre-incubated with compounds. Infected hepatocytes emit light due to the luciferase reaction. Assay results are presented as the percent inhibition of light emission compared to control. […]. Format: functional. The note with it: sporozoite; for IC90: read-out: LUCIFERASE INFECTION ASSAY - IC90.

The mark [1] stands for this setting: read-out: LUCIFERASE INFECTION ASSAY - IC50.

The structures appear in SMILES notation. Bounds are passed on as bounds.

Consider `Cc1cnc(C(=O)NNC(=O)CC23CC4CC(CC(C4)C2)C3)cn1`, for which the IC90 (as a rule, the concentration at which the effect reaches the 90% level) came out at 9.85 µM. Further, for the setting “HEPG2TOX_HILL_SLOPE 1.28, HEPG2TOX_R_SQUARED 0.86, PBLUC_HILL_SLOPE 19.8, PBLUC_R_SQUARED 0.188, read-out: LUCIFERASE INFECTION ASSAY - IC50”, the IC50 (commonly the concentration needed to halve the response being measured) stood at 8.81 µM.

In the case of `CC(NC(=O)c1nc(-c2ccccc2)n(-c2ccccc2)n1)C12CC3CC(CC(C3)C1)C2` (configuration not stated), the 90% effect concentration (IC90) is 5.28 µM. Also, the IC50 (HEPG2TOX_HILL_SLOPE 3.46, HEPG2TOX_R_SQUARED 0.871, PBLUC_HILL_SLOPE 90.3, PBLUC_R_SQUARED 0.516, read-out: LUCIFERASE INFECTION ASSAY - IC50) amounted to 5.15 µM.

`COc1ccc(C(=O)Nc2ccc3nc(-c4ccccc4)nn3c2)cc1OC`: the IC90 was greater than 10 µM. Also, under setting [1], the IC50 is greater than 10 µM.

Turning to `C=CS(=O)(=O)Oc1cc(C)cc(C)c1`, the 90% effect concentration (IC90) was greater than 10 µM. For the same molecule, under “HEPG2TOX_HILL_SLOPE 2.11, HEPG2TOX_R_SQUARED 0.803, read-out: LUCIFERASE INFECTION ASSAY - IC50”, the IC50 was greater than 10 µM.

Consider `CSc1c(C#N)c(-c2ccc(Cl)cc2)nn1C(=O)c1ccccc1Cl`, for which the IC90 was greater than 8.5 µM. For the same molecule, under setting [1], the IC50 was greater than 8.5 µM.

As for `COc1ccc(-c2cnc3cnc(-c4cccc(C(=O)NCCO)c4)cn23)cn1`, the 90% effect concentration (IC90) was greater than 8.47 µM. The IC50 (PBLUC_HILL_SLOPE 11.3, PBLUC_R_SQUARED 0.241, read-out: LUCIFERASE INFECTION ASSAY - IC50) came out at 8.2 µM.

`Cc1ccc(-c2nc(CN3C(=O)NC4(CCCCCC4)C3=O)cs2)cc1`: the IC90 was greater than 10 µM. Further, where the note is “PBLUC_HILL_SLOPE 31.5, PBLUC_R_SQUARED 0.344, read-out: LUCIFERASE INFECTION ASSAY - IC50”, the IC50 came to 9.91 µM.

As to `Clc1cccc(Nc2ncc(-c3ccc4c(c3)OCCCO4)s2)c1`, the IC90 stood at 3.49 µM. The IC50 (PBLUC_HILL_SLOPE 0.775, PBLUC_R_SQUARED 0.83, read-out: LUCIFERASE INFECTION ASSAY - IC50) was found to be 0.205 µM.

In the case of `COc1ccc(CNCc2ccc3ccccc3c2)cc1`, the IC90 is greater than 11.9 µM. For the same molecule, the IC50 under setting [1] was greater than 11.9 µM.

In the case of `OCc1ccc(-c2cnc3ccc(-c4cncnc4)nn23)cc1`, the IC90 stood at 3.81 µM. In addition, where the note is “HEPG2TOX_HILL_SLOPE 10.3, HEPG2TOX_R_SQUARED 0.526, PBLUC_HILL_SLOPE 13.6, PBLUC_R_SQUARED 0.613, read-out: LUCIFERASE INFECTION ASSAY - IC50”, the IC50 was 3.24 µM.

`COc1ccc(C(CNC(=O)c2cc3c(C)nn(-c4ccc(Cl)cc4)c3s2)N(C)C)cc1` (configuration not stated): the concentration for an effect of 90% (IC90) amounted to 4.14 µM. Further, the IC50 (PBLUC_HILL_SLOPE 12.4, PBLUC_R_SQUARED 0.574, read-out: LUCIFERASE INFECTION ASSAY - IC50) amounted to 3.47 µM.

As for `CC(=O)Nc1ccc(Sc2cc(C)nc(C(C)C)n2)cc1`, the concentration for an effect of 90% (IC90) amounted to 9.81 µM. Also, where the note is “PBLUC_HILL_SLOPE 2.86, PBLUC_R_SQUARED 0.342, read-out: LUCIFERASE INFECTION ASSAY - IC50”, the IC50 was 4.56 µM.

On to `O=C(/C=C/c1ccc(-c2ccccc2Cl)s1)N1CCN(c2ncccn2)CC1`, for which the IC90 is greater than 10 µM. Where the note is “HEPG2TOX_HILL_SLOPE 11.1, HEPG2TOX_R_SQUARED 0.736, PBLUC_HILL_SLOPE 11.3, PBLUC_R_SQUARED 0.239, read-out: LUCIFERASE INFECTION ASSAY - IC50”, the IC50 was determined as 9.23 µM.

As to `C=CCn1c(SCC(=O)Nc2scc(-c3ccc(C(C)(C)C)cc3)c2C(=O)OCC)nc2sc3c(c2c1=O)CCC3`, the IC90 was greater than 10 µM. The IC50 under setting [1] is greater than 10 µM.

`CCCCCc1ccc(-c2nnc(Sc3ccc(C(F)(F)F)cc3[N+](=O)[O-])[nH]2)cc1`: the IC90 is greater than 7.56 µM. For the setting “PBLUC_HILL_SLOPE 9.1, PBLUC_R_SQUARED 0.598, read-out: LUCIFERASE INFECTION ASSAY - IC50”, the IC50 turned out to be 6.15 µM.

Consider `Cc1cc(-c2cn3c(-c4cccc(O)c4)cnc3cn2)cc(C)c1O`, for which the IC90 is greater than 9.96 µM. Further, the concentration for half-maximal inhibition (IC50) (FFLUC_HILL_SLOPE 0.138, FFLUC_R_SQUARED 0.042, HEPG2TOX_HILL_SLOPE 1.55, HEPG2TOX_R_SQUARED 0.983, PBLUC_HILL_SLOPE 3.3, PBLUC_R_SQUARED 0.553, read-out: LUCIFERASE INFECTION ASSAY - IC50) worked out at 6.94 µM.

Take `O=C(COc1ccc(Oc2ccccc2)cc1)NCc1cn2ccccc2n1`: the IC90 was 1.77 µM. Moreover, the concentration for half-maximal inhibition (IC50) (HEPG2TOX_HILL_SLOPE 0.752, HEPG2TOX_R_SQUARED 0.901, PBLUC_HILL_SLOPE 2.64, PBLUC_R_SQUARED 0.419, read-out: LUCIFERASE INFECTION ASSAY - IC50) came to 0.772 µM.

On to `CCC(C)NC(=O)c1c(NC(=O)C2CCCC2)nc2ccc(C)cn12` (configuration not stated), for which the IC90 is greater than 9.64 µM. Moreover, the 50% inhibitory concentration (IC50) (FFLUC_HILL_SLOPE 1.17, FFLUC_R_SQUARED 0.173, read-out: LUCIFERASE INFECTION ASSAY - IC50) was greater than 9.64 µM.

Take `COc1ccc(C)cc1CCNc1cc(Cl)nc(N)n1`: the IC90 was greater than 10 µM. Also, the half-inhibitory concentration (IC50) (HEPG2TOX_HILL_SLOPE 10.5, HEPG2TOX_R_SQUARED 0.0746, read-out: LUCIFERASE INFECTION ASSAY - IC50) is greater than 10 µM.

As for `N#CN=c1nc(/C=C/c2ccccc2Cl)[nH]c(-c2ccccc2O)n1`, the IC90 was determined as 4.29 µM. For the setting “PBLUC_HILL_SLOPE 1.8, PBLUC_R_SQUARED 0.74, read-out: LUCIFERASE INFECTION ASSAY - IC50”, the IC50 amounted to 1.26 µM.

Consider `CC(=O)Nc1ccc(Nc2nc3cc(S(=O)(=O)Nc4cccc(Cl)c4)ccc3o2)cc1`, for which the 90% effect concentration (IC90) was 9.97 µM. In addition, where the note is “HEPG2TOX_HILL_SLOPE 0.957, HEPG2TOX_R_SQUARED 0.862, PBLUC_HILL_SLOPE 2.24, PBLUC_R_SQUARED 0.74, read-out: LUCIFERASE INFECTION ASSAY - IC50”, the half-inhibitory concentration (IC50) was 3.74 µM.

Regarding `CSc1nc2ccc(NC(=O)c3cn4ccccc4n3)cc2s1`, the 90% effect concentration (IC90) is greater than 10 µM. The IC50 under setting [1] worked out at 3.18 µM.

With `O=C(CCc1ccc(O)cc1)NNC(=S)Nc1ccc(Cl)c(Cl)c1`, the IC90 is greater than 8.59 µM. In addition, the half-maximal inhibitory concentration (IC50) (PBLUC_HILL_SLOPE 3.89, PBLUC_R_SQUARED 0.475, read-out: LUCIFERASE INFECTION ASSAY - IC50) is 5.88 µM.

As for `CC(C)(CNC(=O)c1ccc(F)cc1)SCc1ccc(F)cc1`, the IC90 is greater than 9.84 µM. Further, where the note is “HEPG2TOX_HILL_SLOPE 0.147, HEPG2TOX_R_SQUARED 0.538, PBLUC_HILL_SLOPE 1.03, PBLUC_R_SQUARED 0.662, read-out: LUCIFERASE INFECTION ASSAY - IC50”, the IC50 was 3.54 µM.

`O=C(Nc1cc(Cl)ccc1N1CCOCC1)c1ccccc1NS(=O)(=O)c1ccc(Br)s1`: the 90% effect concentration (IC90) turned out to be 1.16 µM. For the same molecule, the IC50 (FFLUC_HILL_SLOPE 16.2, FFLUC_R_SQUARED 0.517, HEPG2TOX_HILL_SLOPE 1.46, HEPG2TOX_R_SQUARED 0.905, PBLUC_HILL_SLOPE 14.3, PBLUC_R_SQUARED 0.479, read-out: LUCIFERASE INFECTION ASSAY - IC50) came to 0.994 µM.

On to `O=C(CNc1ccc(C(F)(F)F)cc1Cl)Nc1cccc(C(=O)NC2CC2)c1`, for which the IC90 was 7.38 µM. In addition, under “PBLUC_HILL_SLOPE 3.94, PBLUC_R_SQUARED 0.579, read-out: LUCIFERASE INFECTION ASSAY - IC50”, the IC50 is 4.23 µM.

As for `Cc1ccc(C(C)C)cc1OCC(=O)N1CCC(C(=O)Nc2ccccc2O)CC1`, the IC90 turned out to be 4.58 µM. For the same molecule, the half-inhibitory concentration (IC50) (PBLUC_HILL_SLOPE 135, PBLUC_R_SQUARED 0.614, read-out: LUCIFERASE INFECTION ASSAY - IC50) came out at 4.51 µM.

For the molecule `COc1ccccc1-c1ccc2ncc(-c3cccnc3)n2n1`, the IC90 was found to be 4.41 µM. For the same molecule, the IC50 (HEPG2TOX_HILL_SLOPE 0.11, HEPG2TOX_R_SQUARED 0.0747, PBLUC_HILL_SLOPE 11.9, PBLUC_R_SQUARED 0.526, read-out: LUCIFERASE INFECTION ASSAY - IC50) stood at 3.67 µM.

For the molecule `NC(CCc1ccccc1)c1csc(Nc2ccc(C(F)(F)F)cn2)n1` (configuration not stated), the IC90 was 4.5 µM. Further, under “PBLUC_HILL_SLOPE 84.8, PBLUC_R_SQUARED 0.093, read-out: LUCIFERASE INFECTION ASSAY - IC50”, the IC50 amounted to 4.38 µM.

Consider `C=CCNC(=O)CSc1nccc(-c2sc3sc(Br)c(C)c3c2C)n1`, for which the 90% effect concentration (IC90) was greater than 7.26 µM. In addition, the half-maximal inhibitory concentration (IC50) (HEPG2TOX_HILL_SLOPE 7.83, HEPG2TOX_R_SQUARED 0.735, PBLUC_HILL_SLOPE 0.44, PBLUC_R_SQUARED 0.419, read-out: LUCIFERASE INFECTION ASSAY - IC50) worked out at 2.88 µM.

Take `O=C(c1cccs1)N1CCN(c2cc(C(F)(F)F)nc3ccccc23)CC1`: the IC90 turned out to be 3.33 µM. In addition, the IC50 (PBLUC_HILL_SLOPE 13.8, PBLUC_R_SQUARED 0.566, read-out: LUCIFERASE INFECTION ASSAY - IC50) was determined as 2.84 µM.

As for `CNc1nc2cnc(Nc3cccc(C)c3)cc2n1-c1cc(OC)c(OC)c(OC)c1`, the concentration for an effect of 90% (IC90) was greater than 10 µM. In addition, the half-maximal inhibitory concentration (IC50) under setting [1] is greater than 10 µM.

For the molecule `Cc1nc(C2CC2)nc2sc(-c3nc(-c4cccs4)no3)c(N)c12`, the IC90 was greater than 10 µM. Moreover, the concentration for half-maximal inhibition (IC50) (PBLUC_HILL_SLOPE 2.09, PBLUC_R_SQUARED 0.41, read-out: LUCIFERASE INFECTION ASSAY - IC50) stood at 4.67 µM.

As for `O=C(Nc1ccc(C(F)(F)F)cc1[N+](=O)[O-])c1ccccc1O`, the IC90 came out at 3.69 µM. Besides, the 50% inhibitory concentration (IC50) (HEPG2TOX_HILL_SLOPE 10.5, HEPG2TOX_R_SQUARED 0.302, PBLUC_HILL_SLOPE 15.7, PBLUC_R_SQUARED 0.498, read-out: LUCIFERASE INFECTION ASSAY - IC50) came out at 3.21 µM.

Take `CCOC(=O)N1CCC(NCC(O)COc2ccc(C(C)(C)C)cc2)CC1` (configuration not stated): the IC90 is greater than 10 µM. For the same molecule, the half-maximal inhibitory concentration (IC50) (PBLUC_HILL_SLOPE 1.54, PBLUC_R_SQUARED 0.688, read-out: LUCIFERASE INFECTION ASSAY - IC50) came to 4.08 µM.

As to `CC(Sc1nncs1)C(=O)Nc1cc([N+](=O)[O-])ccc1Cl` (configuration not stated), the 90% effect concentration (IC90) is greater than 10 µM. Further, under setting [1], the half-inhibitory concentration (IC50) was greater than 10 µM.
